# Source: patent US20110280958A1 (priority 2010, published 2011)
# What was measured:
# [1] = system: Alternaria solani; conditions: in vivo
# [2] = system: Phytophthora infestans; conditions: in vivo
# [3] = system: Venturia inaequalis; assay: Venturia test (apples)/preventive; assay type: in vivo; conditions: preventive spray, evaluated 10 days after inoculation
# Procedure: Solvent: 24.5 parts by weight of acetone • 24.5 parts by weight of dimethylacetamide
# Emulsifier: 1 part by weight of alkylaryl polyglycol ether
# To produce a suitable preparation of active compound, 1 part by weight of active compound is mixed with the stated amounts of solvent and emulsifier, and the concentrate is diluted with water to the desired concentration. To test for preventive activity, young plants are sprayed with the preparation of active compound at the stated rate of application. After the spray coating has dried on, the plants are inoculated with an aqueous conidia suspension of the causal agent of apple scab (Venturia inaequalis) and then remain for 1 day in an incubation cabinet at approximately 20° C. and a relative atmospheric humidity of 100%. The plants are then placed in a greenhouse at approximately 21° C. and a relative atmospheric humidity of approximately 90%. The test is evaluated 10 days after the inoculation. 0% means an efficacy which corresponds to that of the untreated control, while an efficacy of 100% means that no disease is observed.
Compound,Efficacy in % found [1],Efficacy in % found [2],Efficacy in % found ([3]; 250 ppm a.i.),Efficacy in % found ([3]; 25 ppm a.i.)
"O=S(=O)([O-])[O-].[Mg+2] [(1-2), magnesium sulphate]",0%,,,
"O=S(=O)([O-])[O-].[Mn+2] [(3-2), manganese sulphate]",0%,0%,,
"O=S(=O)([O-])[O-].[Fe+2] [(3-3), iron sulphate]",35%,,43%,
"O=S(=O)([O-])[O-].[Zn+2] [(3-7), zinc sulphate]",23%,35%,19%,
"Cn1c(=O)c2sc3c(=O)n(C)c(=O)c3sc2c1=O [(I-1), 2,6-dimethyl-1H,5H-[1,4]dithiino[2,3-c:5,6-c′]dipyrrole-1,3,5,7(2H,6H)-tetrone]",,9%,,32%
